# PubChem BioAssay (NCI)
# “And” between values parts separate entries of the source, which are not always exact repeats. Equal values may be shown once.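 A five-concentration, 48-hour dose response in 96-well plates underlies each endpoint, interpolated linearly between surrounding concentrations. GI50: concentration for 50% inhibition of growth. TGI: total growth inhibition.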
# Columns and labels:
# Test in all cases: NCI-60 cell line screen, 48 h
# [1] = test system: UACC-62 melanoma
# [2] = test system: SF-539 CNS
# [3] = test system: MOLT-4 leukemia
# [4] = test system: BT-549 breast
# [5] = test system: DU-145 prostate
# [6] = test system: NCI-H23 lung
# [7] = test system: HT29 colon
# [8] = test system: HOP-62 NSCLC
# [9] = test system: OVCAR-3 ovarian
# [10] = test system: UO-31 renal
# [11] = test system: NCI-H522 lung
# [12] = test system: SF-268 CNS
# [13] = test system: SK-OV-3 ovarian
# [14] = test system: SF-295 CNS
# [15] = test system: HL-60(TB) leukemia
# [16] = test system: LOX IMVI melanoma
# [17] = test system: CAKI-1 renal
# [18] = test system: RPMI-8226 leukemia
# [19] = test system: SW-620 colon
# [20] = test system: T-47D breast
# [21] = test system: MCF7 breast
# [22] = test system: SK-MEL-2 melanoma
# [23] = test system: SNB-75 CNS
# [24] = test system: A549 NSCLC
# [25] = test system: OVCAR-8 ovarian
# [26] = test system: HCT-116 colon
# [27] = test system: MDA-MB-231 breast
# [28] = test system: OVCAR-4 ovarian
# [29] = test system: HCC-2998 colon
# [30] = test system: SR leukemia
# [31] = test system: NCI/ADR-RES ovarian
# [32] = test system: SN12C renal
# [33] = test system: SNB-19 CNS
# [34] = test system: A498 renal
# [35] = test system: KM12 colon
# [36] = test system: PC-3 prostate
# [37] = test system: CCRF-CEM leukemia
# [38] = test system: NCI-H460 lung
# [39] = test system: IGROV1 ovarian
# [40] = test system: OVCAR-5 ovarian
# [41] = test system: U251 CNS
# [42] = test system: HOP-92 NSCLC
# [43] = test system: K-562 leukemia
# [44] = test system: M14 melanoma
# [45] = test system: SK-MEL-5 melanoma
# [46] = test system: COLO 205 colon
# [47] = test system: HS 578T breast
# [48] = test system: EKVX NSCLC
# [49] = test system: SK-MEL-28 melanoma
# [50] = test system: RXF 393 renal
# [51] = test system: MALME-3M melanoma
# [52] = test system: MDA-MB-435
# [53] = test system: NCI-H226 lung
# [54] = test system: HCT-15 colon
# [55] = test system: UACC-257 melanoma
# [56] = test system: 786-0 renal
# [57] = test system: ACHN renal
# [58] = test system: TK-10 renal
smiles,measurement,setting,value
COc1cc(O)c2c(c1)/C=C/C[C@H](O)[C@H](O)C(=O)/C=C\C[C@H](C)OC2=O,GI50,[1],0.0173 µM and 0.113 µM
same,TGI,[1],2.89 µM and 9.52 µM
same,GI50,[2],1.92 µM and 3.12 µM
same,TGI,[2],6.89 µM and 15.3 µM
same,GI50,[3],0.763 µM and 2.25 µM
same,TGI,[3],3.75 µM and 8 µM
same,TGI,[4],3.28 µM and 13.1 µM
same,GI50,[5],2.09 µM and 5.28 µM
same,TGI,[5],13.8 µM and 18.6 µM
same,GI50,[6],0.559 µM
same,TGI,[6],4.56 µM
same,GI50,[7],0.0462 µM and 0.0821 µM
same,TGI,[7],4.35 µM and 10.3 µM
same,GI50,[8],4.14 µM and 14.5 µM
same,TGI,[8],10.9 µM and 40.2 µM
same,GI50,[9],0.991 µM and 2.88 µM
same,TGI,[9],7.27 µM and 14.2 µM
same,GI50,[10],0.237 µM and 0.326 µM
same,TGI,[10],5.42 µM and 11.9 µM
same,GI50,[11],0.357 µM and 2.05 µM
same,TGI,[11],4.01 µM and 12.7 µM
same,GI50,[12],4.7 µM and 12.8 µM
same,TGI,[12],33.5 µM and 55.7 µM
same,GI50,[13],5.73 µM and 17.9 µM
same,TGI,[13],21.6 µM and 80.3 µM
same,GI50,[14],4.32 µM and 18.6 µM
same,TGI,[14],11.1 µM and 45 µM
same,GI50,[15],0.218 µM and 0.205 µM
same,TGI,[15],4.27 µM and 2.55 µM
same,GI50,[16],0.477 µM and 1.04 µM
same,TGI,[16],3.59 µM and 4.44 µM
same,GI50,[17],0.514 µM and 0.403 µM
same,TGI,[17],6.31 µM and 12.7 µM
same,GI50,[18],0.815 µM and 1.59 µM
same,TGI,[18],4.66 µM and 7.41 µM
same,GI50,[19],0.224 µM and 0.469 µM
same,TGI,[19],8.33 µM and 10.3 µM
same,GI50,[20],1.18 µM and 2.66 µM
same,TGI,[20],11.5 µM and 21.3 µM
same,GI50,[21],0.891 µM and 2.89 µM
same,TGI,[21],4.13 µM and 10.9 µM
same,GI50,[22],2.61 µM and 2.81 µM
same,TGI,[22],9.12 µM and 13.7 µM
same,GI50,[23],5.72 µM and 3.57 µM
same,TGI,[23],17 µM and 31 µM
same,GI50,[24],4.77 µM and 34.8 µM
same,TGI,[24],33.5 µM and > 100 µM
same,GI50,[25],1.44 µM and 2.87 µM
same,TGI,[25],7.22 µM and 14.6 µM
same,GI50,[26],0.515 µM and 0.601 µM
same,TGI,[26],3.66 µM and 10 µM
same,TGI,[27],7.26 µM and 27 µM
same,GI50,[28],3.55 µM and 2.52 µM
same,TGI,[28],33.5 µM and 23.3 µM
same,GI50,[29],2.46 µM and 9.46 µM
same,TGI,[29],7.09 µM and 23.3 µM
same,GI50,[30],0.358 µM and 0.671 µM
same,TGI,[30],5.94 µM and 6.49 µM
same,GI50,[31],1.92 µM and 4.11 µM
same,TGI,[31],9.55 µM and 31.5 µM
same,GI50,[32],1.35 µM and 4.12 µM
same,TGI,[32],9.17 µM and 23.7 µM
same,GI50,[33],5.71 µM and 14.9 µM
same,TGI,[33],23.5 µM and 73.3 µM
same,GI50,[34],4.93 µM and 4.48 µM
same,TGI,[34],32.3 µM and 67.7 µM
same,GI50,[35],1.54 µM and 5.53 µM
same,TGI,[35],6.87 µM and 24.8 µM
same,GI50,[36],4.62 µM and 9.91 µM
same,TGI,[36],15 µM and 28.7 µM
same,GI50,[37],1.01 µM and 2.42 µM
same,TGI,[37],11.4 µM and 9.13 µM
same,GI50,[38],2.29 µM and 3.34 µM
same,TGI,[38],33.5 µM and 17.2 µM
same,GI50,[39],3.74 µM and 2.64 µM
same,TGI,[39],16.9 µM and 20.9 µM
same,GI50,[40],3.61 µM and 4.27 µM
same,TGI,[40],10.3 µM and 22.6 µM
same,GI50,[41],1.8 µM and 11.2 µM
same,TGI,[41],6.99 µM and 23.5 µM
same,GI50,[42],0.165 µM and 0.223 µM
same,TGI,[42],3.1 µM and 0.973 µM
same,GI50,[43],1.11 µM and 2.15 µM
same,TGI,[43],27 µM and 12.3 µM
same,GI50,[44],0.022 µM and 0.05 µM
same,TGI,[44],1.42 µM and 10.3 µM
same,GI50,[45],0.331 µM and 2.69 µM
same,TGI,[45],4.53 µM and 14.4 µM
same,GI50,[46],0.0614 µM and 0.194 µM
same,TGI,[46],3.98 µM and 12 µM
same,GI50,[47],3.91 µM and 2.72 µM
same,TGI,[47],28.5 µM and 13.1 µM
same,GI50,[48],3.01 µM and 15.3 µM
same,TGI,[48],10.7 µM and 52.2 µM
same,GI50,[49],0.0148 µM and 0.0458 µM
same,TGI,[49],3.52 µM and 1.04 µM
same,GI50,[50],1.07 µM and 2.01 µM
same,TGI,[50],5.7 µM and 7.21 µM
same,GI50,[51],0.00579 µM and 0.0157 µM
same,TGI,[51],0.0926 µM and 0.0572 µM
same,GI50,[52],0.157 µM and 0.171 µM
same,TGI,[52],6.56 µM and 2.55 µM
same,GI50,[53],5.45 µM
same,TGI,[53],33.5 µM
same,GI50,[54],0.618 µM and 2.17 µM
same,TGI,[54],4.64 µM and 12.4 µM
same,GI50,[55],0.0252 µM and 0.139 µM
same,TGI,[55],1.74 µM and 1.27 µM
same,GI50,[56],3.88 µM and 3.81 µM
same,TGI,[56],8.49 µM and 15.8 µM
same,GI50,[57],0.877 µM and 1.74 µM
same,TGI,[57],5.61 µM and 14.4 µM
same,GI50,[58],1.86 µM and 5.29 µM
same,TGI,[58],7.31 µM and 31.1 µM
CN(C)CCNC(=O)c1ccc(-c2nc3ccc4[nH]ncc4c3c3c2CCC3)cc1,GI50,[1],1.1 µM
same,TGI,[1],6.1 µM
same,GI50,[2],0.606 µM
same,TGI,[2],1.74 µM
same,GI50,[3],1.04 µM
same,TGI,[3],15.3 µM
same,GI50,[4],0.65 µM
same,TGI,[4],1.43 µM
same,GI50,[5],0.76 µM
same,TGI,[5],5.01 µM
same,GI50,[6],1.19 µM
same,TGI,[6],3.94 µM
same,GI50,[7],1.29 µM
same,TGI,[7],6.13 µM
same,GI50,[8],0.593 µM
same,TGI,[8],2.67 µM
same,GI50,[10],1.07 µM
same,TGI,[10],4.66 µM
same,GI50,[11],0.387 µM
same,TGI,[11],1.32 µM
same,GI50,[12],0.634 µM
same,TGI,[12],2.14 µM
same,GI50,[13],0.288 µM
same,TGI,[13],3.04 µM
same,GI50,[14],1.34 µM
same,TGI,[14],5.38 µM
same,GI50,[15],0.992 µM
same,TGI,[15],3.34 µM
same,GI50,[16],0.616 µM
same,TGI,[16],1.5 µM
same,GI50,[17],0.263 µM
same,TGI,[17],5.54 µM
same,GI50,[18],1.19 µM
same,TGI,[18],4.14 µM
same,GI50,[19],0.611 µM
same,TGI,[19],3.61 µM
same,GI50,[20],1.37 µM
same,TGI,[20],9.66 µM
same,GI50,[21],0.657 µM
same,TGI,[21],5.25 µM
same,GI50,[22],0.85 µM
same,TGI,[22],1.83 µM
same,GI50,[23],0.543 µM
same,TGI,[23],2.04 µM
same,GI50,[24],1.26 µM
same,TGI,[24],6.78 µM
same,GI50,[25],0.854 µM
same,TGI,[25],5.8 µM
same,GI50,[26],0.331 µM
same,TGI,[26],4.34 µM
same,GI50,[27],0.927 µM
same,TGI,[27],2.84 µM
same,GI50,[28],1.33 µM
same,TGI,[28],5.48 µM
same,GI50,[29],1.25 µM
same,TGI,[29],5.68 µM
same,GI50,[30],0.14 µM
same,TGI,[30],2.82 µM
same,GI50,[31],9.07 µM
same,TGI,[31],50 µM
same,GI50,[32],1.13 µM
same,TGI,[32],4.15 µM
same,GI50,[33],1.47 µM
same,TGI,[33],6.21 µM
same,GI50,[34],0.281 µM
same,TGI,[34],1.07 µM
same,GI50,[35],1.08 µM
same,TGI,[35],4.62 µM
same,GI50,[36],0.717 µM
same,TGI,[36],4.96 µM
same,GI50,[37],0.857 µM
same,TGI,[37],28.7 µM
same,GI50,[38],1.28 µM
same,TGI,[38],5.17 µM
same,GI50,[39],0.684 µM
same,TGI,[39],5.4 µM
same,GI50,[40],1.4 µM
same,TGI,[40],7.34 µM
same,GI50,[41],1.02 µM
same,TGI,[41],6.51 µM
same,GI50,[42],0.343 µM
same,TGI,[42],1.84 µM
same,GI50,[43],1.11 µM
same,TGI,[43],20.1 µM
same,GI50,[44],0.961 µM
same,TGI,[44],6.08 µM
same,GI50,[45],1.6 µM
same,TGI,[45],5.98 µM
same,GI50,[46],0.507 µM
same,TGI,[46],2.23 µM
same,GI50,[47],0.549 µM
same,TGI,[47],1.99 µM
same,GI50,[48],0.891 µM
same,TGI,[48],5.01 µM
same,GI50,[49],1.31 µM
same,TGI,[49],5.34 µM
same,GI50,[50],0.279 µM
same,TGI,[50],1.1 µM
same,GI50,[51],1.26 µM
same,TGI,[51],4.13 µM
same,GI50,[52],1.13 µM
same,TGI,[52],6.99 µM
same,GI50,[53],1.01 µM
same,TGI,[53],6.34 µM
same,GI50,[54],1.61 µM
same,TGI,[54],7.63 µM
same,GI50,[55],2.31 µM
same,TGI,[55],8.36 µM
same,GI50,[56],0.882 µM
same,TGI,[56],5.61 µM
same,GI50,[57],0.844 µM
same,TGI,[57],6.86 µM
same,GI50,[58],0.295 µM
same,TGI,[58],5.38 µM
